Results taken from patent US8575160B2, “Imidazole derivatives as aldosterone synthase inhibitors” (Novartis AG, priority 2009, dated 2013).

What was measured:
[1] = target: T1, aldosterone synthase (CYP11B2) (Homo sapiens, UniProt P19099); experiment: cellular aldosterone production in NCI-H295R cells (aldosterone synthase inhibition); type: cell-based
T1 construct: host or cells: NCI-H295R
T1 sequence (P19099 25-503): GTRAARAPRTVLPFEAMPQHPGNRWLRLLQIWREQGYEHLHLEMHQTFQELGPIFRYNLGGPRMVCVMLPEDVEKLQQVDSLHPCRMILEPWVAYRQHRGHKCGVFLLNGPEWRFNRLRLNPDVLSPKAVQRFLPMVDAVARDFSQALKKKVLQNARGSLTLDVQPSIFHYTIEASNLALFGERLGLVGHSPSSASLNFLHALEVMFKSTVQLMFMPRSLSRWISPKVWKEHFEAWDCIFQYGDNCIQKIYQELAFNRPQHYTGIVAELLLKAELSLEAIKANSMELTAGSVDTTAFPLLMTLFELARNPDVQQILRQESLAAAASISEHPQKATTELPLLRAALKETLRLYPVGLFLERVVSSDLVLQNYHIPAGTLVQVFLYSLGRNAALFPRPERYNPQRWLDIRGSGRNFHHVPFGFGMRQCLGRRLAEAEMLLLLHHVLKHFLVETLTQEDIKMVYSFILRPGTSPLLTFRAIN
From the text: In particular, the aldosterone synthase inhibitory activities in vitro can be determined by the following assay.
Human adrenocortical carcinoma NCI-H295R cell line was obtained from American Type Culture Collection (Manassas, Va.). Insulin/transferrin/selenium (ITS)-A supplement (100×), DMEM/F-12, antibiotic/antimycotic (100×), and fetal bovine serum (FBS) were purchased from Invitrogen (Carlsbad, Calif.). Anti-mouse PVT scintillation proximity assay (SPA) beads and NBS 96-well plates were obtained from GE Health Sciences (Piscataway, N.J.) and Corning (Acton, Mass.), respectively. Solid black 96-well flat bottom plates were purchased from Costar (Corning, N.Y.). Aldosterone and angiotensin (Ang II) were purchased from Sigma (St. Louis, Mo.). D[1,2,6,7-^3H(N)]aldosterone was acquired from PerkinElmer (Boston, Mass.). Nu-serum was a product of BD Biosciences (Franklin Lakes, N.J.).
For in vitro measurement of aldosterone activity, human adrenocortical carcinoma NCI-H295R cells are seeded in NBS 96-well plates at a density of 25,000 cells/well in 100 μl of a growth medium containing DMEM/F12 supplemented with 10% FCS, 2.5% Nu-serum, 1 μg ITS/ml, and 1× antibiotic/antimycotic. The medium is changed after culturing for 3 days at 37° C. under an atmosphere of 5% CO2/95% air. On the following day, cells are rinsed with 100 μl of phosphate-buffered saline (PBS) and incubated with 100 μl of treatment medium containing 1 μM Ang II and a compound at different concentrations in quadruplicate wells at 37° C. for 24 hr. At the end of incubation, 50 μl of medium is withdrawn from each well for measurement of aldosterone production by an SPA using mouse anti-aldosterone monoclonal antibodies.
Measurement of aldosterone activity can also be performed using a 96-well plate format. Each test sample is incubated with 0.02 μCi of D[1,2,6,7-^3H(N)]aldosterone and 0.3 μg of anti-aldosterone antibody in PBS containing 0.1% Triton X-100, 0.1% bovine serum albumin, and 12% glycerol in a total volume of 200 μl at room temperature for 1 hr. Anti-mouse PVT SPA beads (50 μl) are then added to each well and incubated overnight at room temperature prior to counting in a Microbeta plate counter. The amount of aldosterone in each sample is calculated by comparing with a standard curve generated using known quantities of the hormone.
(§1) Inhibition of the release of certain steroids can be used as a measure of the respective enzyme inhibition by the added test compounds. The dose-dependent inhibition of enzymic activity by a compound is calculated by means of an inhibition plot which is characterized by an IC50.
(§2) The IC50 values for active test compounds are ascertained by a simple linear regression analysis in order to construct inhibition plots without data weighting. The inhibition plot is calculated by fitting a 4-parameter logistic function to the raw data points using the least squares method. The equation of the 4-parameter logistic function is calculated as follows: Y=(d−a)/((1+(x/c)b))+a, where: a=minimum data level, b=gradient, I […], d=maximum data level, x=inhibitor concentration.

CYP11B1 = target: T2, CYP11B1 (Homo sapiens, UniProt P15538); experiment: cellular cortisol production in NCI-H295R cells (CYP11B1 inhibition); type: cell-based
T2 construct: the NCI-H295R cells have CYP11 B1 (steroid 11 β-hydroxylase); host or cells: NCI-H295R
T2 sequence (P15538 25-503): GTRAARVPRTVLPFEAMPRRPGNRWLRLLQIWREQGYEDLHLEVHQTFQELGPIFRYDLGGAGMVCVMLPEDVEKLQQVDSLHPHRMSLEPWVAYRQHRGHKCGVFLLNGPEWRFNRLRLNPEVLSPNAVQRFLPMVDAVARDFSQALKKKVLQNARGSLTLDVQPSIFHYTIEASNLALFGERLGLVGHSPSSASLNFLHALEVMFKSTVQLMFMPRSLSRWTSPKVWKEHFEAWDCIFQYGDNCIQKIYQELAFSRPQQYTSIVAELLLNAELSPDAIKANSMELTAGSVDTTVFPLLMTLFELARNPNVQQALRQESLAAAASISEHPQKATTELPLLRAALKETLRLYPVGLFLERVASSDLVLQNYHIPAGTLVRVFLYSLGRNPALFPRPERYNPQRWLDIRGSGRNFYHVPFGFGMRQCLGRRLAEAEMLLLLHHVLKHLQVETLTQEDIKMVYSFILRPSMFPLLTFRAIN
From the text: The in vitro inhibitory activities for CYP11B1 can be determined by the following assay.
The cell line NCI-H295R was originally isolated from an adrenocortical carcinoma and has been characterized in the literature through the stimulable secretion of steroid hormones and the presence of the enymes essential for steroidogenesis. Thus, the NCI-H295R cells have CYP11 B1 (steroid 11 β-hydroxylase). The cells show the physiological property of zonally undifferentiated human foetal adrenocortical cells which, however, have the capacity to produce the steroid hormones which are formed in the three, phenotypically distinguishable zones in the adult adrenal cortex.
The NCI-H295R cells (American Type Culture Collection, ATCC, Rockville, Md., USA) are grown in Dulbeoco's Modified Eagle'Ham F-12 Medium (DME/F12), which has been supplemented with Ulroser SF Serum (Soprachem, Cergy-Saint-Christophe, France), insulin, transferrin, selenite (I-T-S, Becton Dickinson Biosiences, Franklin lakes, NJ, USA) and antibiotics in 75 cm^2 cell culture vessels at 37° C. and in a 95% air-5% carbon dioxide atmosphere. The cells are subsequently transferred for colony formation into a 24-well incubation vessel. They are cultivated there in DME/F12 medium, which is now supplemented with 0.1% bovine serum instead of Ultroser SF for 24 hours. The experiment is initiated by cultivating the cells in DME/F12 medium which is supplemented with 0.1% bovine serum albumin and test compound, in the presence or absence of cell stimulants, for 72 hours. The test substance is added in a concentration range from 0.2 nanomolar to […]. Cell stimulants which can be used are angiotensin 11 (1 D or 100 nanomolar), potassium ions (16 millimolar), forskolin (10 micromolar) or a combination of two stimulants.
The excretion of aldosterone, cortisol, corticosterone and estradiol/estrone into the culture medium can be detected and quantified by commercially available, specific monoclonal antibodies in radioimmunoassays in accordance with the manufacturer's instructions.
as §1, §2

IC50 [1]	IC50 (CYP11B1)	Compound
27 nM	84 nM	N#Cc1ccc([C@H]2C[C@](O)(c3cccc(C4CC4)c3)c3cncn32)c(F)c1 [Example 1-2, 4-((5R,7S)-7-(3-cyclopropylphenyl)-7-hydroxy-6,7-dihydro-5H-pyrrolo[1,2-c]imidazol-5-yl)-3-fluorobenzonitrile]
5 nM	480 nM	Cc1ccc([C@@]2(O)C[C@H](c3ccc(C#N)cc3F)n3cncc32)cc1C [Example 1-4, 4-((5R,7S)-7-(3,4-dimethylphenyl)-7-hydroxy-6,7-dihydro-5H-pyrrolo[1,2-c]imidazol-5-yl)-3-fluorobenzonitrile]
6 nM	645 nM	CCc1ccc([C@@]2(O)C[C@H](c3ccc(C#N)cc3F)n3cncc32)cc1 [Example 1-32]
72 nM	135 nM	N#Cc1ccc([C@H]2CC[C@](O)(c3ccc(-c4ccccc4)cc3)c3cncn32)cc1 [Example 1-41]
42 nM	220 nM	CC1(C)[C@H](c2ccc(C#N)cc2F)n2cncc2[C@@]1(O)c1ccc(F)cc1 [Example 1-53, 3-fluoro-4-((5R,7R)-7-(4-fluorophenyl)-7-hydroxy-6,6-dimethyl-6,7-dihydro-5H-pyrrolo[1,2-c]imidazol-5-yl)benzonitrile]
6 nM	338 nM	COc1cc(-c2cccc([C@@]3(O)C[C@H](c4ccc(C#N)cc4F)n4cncc43)c2)ccn1 [Example 2-10]
72 nM	8780 nM	N#Cc1ccc([C@H]2C[C@](O)(CC(=O)Nc3cccc(OC(F)(F)F)c3)c3cncn32)c(F)c1 [Example 4-15]

The remaining lines, values behind:

Compound	IC50 [1]	IC50 (CYP11B1)
C=C[C@@]1(O)C[C@H](c2ccc(C#N)cc2F)n2cncc21 [Example 1-1, 3-fluoro-4-((5R,7S)-7-hydroxy-7-vinyl-6,7-dihydro-5H-pyrrolo[1,2-c]imidazol-5-yl)benzonitrile]	11 nM	472 nM
N#Cc1ccc([C@H]2C[C@](O)(CCc3ccccc3)c3cncn32)c(F)c1 [Example 1-12]	2 nM	6 nM
N#Cc1ccc([C@H]2C[C@](O)(c3ccc4c(c3)OCO4)c3cncn32)c(F)c1 [Example 1-13]	34 nM	103 nM
N#Cc1ccc([C@H]2C[C@](O)(c3ccc4ccccc4c3)c3cncn32)c(F)c1 [Example 1-16]	2 nM	143 nM
N#Cc1ccc([C@H]2C[C@@](O)(c3ccc4ccccc4c3)c3cncn32)c(F)c1 [Example 1-17]	1 nM	14 nM
N#Cc1ccc([C@H]2C[C@](O)(c3cccc(-c4ccc(F)cc4)c3)c3cncn32)c(F)c1 [Example 1-30]	25 nM	522 nM
Cn1c([C@@]2(O)C[C@H](c3ccc(C#N)cc3F)n3cncc32)cc2ccccc21 [Example 1-50]	7 nM	1800 nM
N#Cc1ccc([C@H]2C[C@](O)(C#CC3CC3)c3cncn32)c(F)c1 [Example 1-52, 4-((5R,7S)-7-(cyclopropylethynyl)-7-hydroxy-6,7-dihydro-6H-pyrrolo[1,2-c]imidazol-5-yl)-3-fluorobenzonitrile]	142 nM	273 nM
Cc1cc(-c2ccc([C@@]3(O)C[C@H](c4ccc(C#N)cc4F)n4cncc43)cc2)ccn1 [Example 3-14]	64 nM	10200 nM
